Assay results published in patent US5726159A, “Antithrombotic agents” (Eli Lilly and Company, priority 1995, dated 1998).
Counter-ions that a name gives are not always drawn.

Assays:
Assay type in all cases: biochemical
Settings in all cases: concentration required to double the clotting time
Human plasma [1] = assay: Human plasma anticoagulation, thrombin time (TT)
Protocol: (§1) Dog plasma and rat plasma is obtained from conscious mixed-breed hounds (either sex, Hazelton-LRE, Kalamazoo, Mich., U.S.A.) or from anesthetized male Sprague-Dawley rats (Harlan Sprague-Dawley, Inc., Indianapolis, Ind., U.S.A.) by venipuncture into 3.8 percent citrate. Fibrinogen is prepared from in-date ACD human blood as the fraction I-2 according to previous procedures and specifications. […] Human fibrinogen is also purchased as 98 percent pure/plasmin free from American Diagnostica, Greenwich, Conn. Coagulation reagents ACTIN, Thromboplastin, and Human plasma are from Baxter Healthcare Corp., Dade Division, Miami, Fla. Bovine thrombin from Parke-Davis ([…], Mich.) is used for coagulation assays in plasma.
(§2) Coagulation assay procedures are as previously described. […] A CoAScreener coagulation instrument (American LABor, Inc.) is used for all coagulation assay measurements. The prothrombin time (PT) is measured by adding 0.05 mL saline and 0.05 mL Thromboplastin-C reagent to 0.05 mL test plasma. The activated partial thromboplastin time (APTT) is measured by incubation of 0.05 mL test plasma with 0.05 mL Actin reagent for 120 seconds followed by 0.05 mL CaCl2 (0.02M). The thrombin time (TT) is measured by adding 0.05 mL saline and 0.05 mL thrombin (10 NIH units/mL) to 0.05 mL test plasma. The compounds of Formula I are added to human or animal plasma over a wide range of concentrations to determine prolongation effects on the APTT, PT, and TT assays. Linear extrapolations are performed to estimate the concentrations required to double the clotting time for each assay.

Human plasma [2] = assay: Human plasma anticoagulation, activated partial thromboplastin time (APTT)
Protocol: as §1, §2

Human plasma [3] = assay: Human plasma anticoagulation, prothrombin time (PT)
Protocol: as §1, §2

Compound	2x Clotting time TT (Human plasma [1])	2x Clotting time APTT (Human plasma [2])	2x Clotting time PT (Human plasma [3])
N=C(N)c1ccc(CNC(=O)CN(CCc2ccccc2)C(=O)CNCC(=O)O)cc1 [Example 89, HOOCCH2 -Gly-N-C6 H5 CH2 CH2 Gly-p-NHCH2 C6 H4 C(NH)NH2.HCl]	570 ng/mL	51,000 ng/mL	37,000 ng/mL
N=C(N)Nc1cccc(CNC(=O)[C@@H]2CCCN2C(=O)[C@@H]2NCC[C@@H]3CCCC[C@@H]32)c1 [Example 40, D-1-Piq-Pro-m-NHCH2 C6 H4 NHC(NH)NH2.2HCl]	35,100 ng/mL	> 91,000 ng/mL	> 91,000 ng/mL
N=C(N)Nc1ccc(CCNC(=O)[C@@H]2CCCN2C(=O)[C@@H]2NCC[C@@H]3CCCC[C@@H]32)cc1 [Example 39, D-1-Piq-Pro-p-NHCH2 CH2 C6 H4 NHC(NH)NH2.2HCl]	5,300 ng/mL	69,200 ng/mL	78,600 ng/mL
N=C(N)C1=CNC(CNC(=O)[C@@H]2CCCN2C(=O)[C@@H](CC2CCCCC2)NCC(=O)O)CC1 (stereo partly drawn) [Example 68, HO2 CCH2 -D-Cha-Pro-2-NHCH2 -5-amidino-5,6-dehydro-piperidine.HCl]	4. ng/mL	49 ng/mL	190 ng/mL
Nc1ccc(CCNC(=O)[C@@H]2CCCN2C(=O)[C@@H](CC2CCCCC2)NCC(=O)O)cc1 [Example 63, HO2 CCH2 -D-Cha-Pro-4-NHCH2 CH2 C6 H4 NH2.HCl]	680 ng/mL	–	–
N=C(N)c1ccc(CNC(=O)[C@@H]2C[C@@H]3CCCC[C@@H]3N2C(=O)[C@H]2CCCCN2)cc1 [Example 20, D-hPro-Ohi-p-NHCH2 C6 H4 C(NH)NH2.3HCl]	62 ng/mL	550 ng/mL	600 ng/mL
Nc1ccc(CCNC(=O)[C@@H]2CCCN2C(=O)[C@H](N)Cc2ccccc2)cc1 [Example 14, D-Phe-Pro-p-NHCH2 CH2 C6 H4 NH2.HCl]	21,000 ng/mL	–	–
Nc1ccc(CNC(=O)[C@@H]2CCCN2C(=O)[C@@H](CC2CCCCC2)NCC(=O)O)c(F)c1 [Example 64, HO2 CCH2 -D-Cha-Pro-4-NHCH2 -3-F-C6 H3 NH2.HCl]	23 ng/mL	900 ng/mL	650 ng/mL
NCc1cccc(CNC(=O)[C@@H]2CCCN2C(=O)[C@H](N)Cc2ccccc2)c1 [Example 11, D-Phe-Pro-m-NHCH2 C6 H4 CH2 NH2.HCl]	8,800 ng/mL	–	–
O=C(O)CN[C@H](CC1CCCCC1)C(=O)N1CCC[C@H]1C(=O)NCCC1CCNCC1 [Example 54, HO2 CCH2 -D-Cha-Pro-4-NHCH2 CH2 -piperidine.HCl]	140 ng/mL	3,300 ng/mL	2,200 ng/mL
N=C(N)NC/C=C/CNC(=O)[C@@H]1CCCN1C(=O)[C@H](N)Cc1ccccc1 (relative stereo) [Example 8, D-Phe-Pro-NHCH2 -trans-CH=CHCH2 NHC(NH)NH2.HCl]	130 ng/mL	–	–
D-hPro-Pro-p-NHCH2 C6 H4 C(NH)NH2.HCl [Example 17]	26 ng/mL	370 ng/mL	400 ng/mL
CCS(=O)(=O)N[C@H](Cc1ccccc1)C(=O)N1CCC[C@H]1C(=O)NCCc1ccc(NC(=N)N)cc1 [Example 35, EtSO2 -D-Phe-Pro-p-NHCH2 CH2 C6 H4 CNH(NH)NH2.HCl]	4,500 ng/mL	50,400 ng/mL	78,400 ng/mL
N=C(N)c1ccc(CNC(=O)[C@@H]2CCCN2C(=O)[C@H](NCC(=O)O)C2CCCCC2)cc1 [Example 86, HOOCCH2 -D-Chg-Pro-p-NHCH2 C6 H4 C(NH)NH2.HCl]	4 ng/mL	81 ng/mL	180 ng/mL
CCS(=O)(=O)N[C@H](Cc1ccccc1)C(=O)N1CCC[C@H]1C(=O)NCCCc1ccc(C(=N)N)cc1 [Example 30, EtSO2 -D-Phe-Pro-p-NHCH2 CH2 CH2 -C6 H4 C(=NH)NH2.HCl]	1,000 ng/mL	14,000 ng/mL	14,400 ng/mL
Nc1ccc(CNC(=O)[C@@H]2CCCN2C(=O)[C@H](N)Cc2ccccc2)cc1 [Example 13, D-Phe-Pro-p-NHCH2 C6 H4 NH2.HCl]	660 ng/mL	–	–
CS(=O)(=O)CC(=O)N[C@H](CC1CCCCC1)C(=O)N1CCC[C@H]1C(=O)NCc1ccc(C(=N)N)cc1 [Example 92, MeSO2 CH2 CO-D-Cha-Pro-p-NHCH2 C6 H4 C(NH)NH2.HCl]	8.9 ng/mL	210 ng/mL	340 ng/mL

Compound	2x Clotting time TT (Human plasma [1])	2x Clotting time APTT (Human plasma [2])	2x Clotting time PT (Human plasma [3])
O=C(O)CN[C@H](CC1CCCCC1)C(=O)N1CCC[C@H]1C(=O)NCC1=CCNCC1 [Example 58, HO2 CCH2 -D-Cha-Pro-4-NHCH2 -3,4-dehydro-piperidine.HCl]	710 ng/mL	14,300 ng/mL	11,400 ng/mL
NCC1CCC(CNC(=O)[C@@H]2CCCN2C(=O)[C@@H](CC2CCCCC2)NCC(=O)O)CC1 (stereo partly drawn) [Example 79, HO2 CCH2 -D-Cha-Pro-4-NHCH2 C6 H10 CH2 NH2.HCl]	140 ng/mL	1,700 ng/mL	2,400 ng/mL
N=C(N)NCCCCCCNC(=O)[C@@H]1CCCN1C(=O)[C@H](N)Cc1ccccc1 [Example 5, D-Phe-Pro-NH(CH2)6 NHC(NH)NH2.HCl]	30,000 ng/mL	–	–
D-Phe-Pro-p-NHCH2 C6 H4 C(NH)NH2.HCl [Example 15]	9 ng/mL	89 ng/mL	–
NCc1ccc(CNC(=O)[C@@H]2CCCN2C(=O)[C@@H](CC2CCCCC2)NCC(=O)O)cc1 [Example 78, HO2 CCH2 -D-Cha-Pro-4-NHCH2 C6 H4 CH2 NH2.HCl]	46 ng/mL	430 ng/mL	760 ng/mL
N=C(N)C1CCC(CNC(=O)[C@@H]2CCCN2C(=O)[C@@H](CC2CCCCC2)NCC(=O)O)NC1 (stereo partly drawn) [Example 67, HO2 CCH2 -D-Cha-Pro-2-NHCH2 -5-amidinopiperidine.HCl]	34. ng/mL	1,800 ng/mL	1,300 ng/mL
CCC(CC)C(=O)N[C@@H](CCC(=O)O)C(=O)N1CCC[C@H]1C(=O)NCc1ccc(C(=N)N)cc1 [Example 90, (C2 H5)2 CHCO-Glu-Pro-p-NHCH2 C6 H4 C(NH)NH2.HCl]	330 ng/mL	14,500 ng/mL	14,600 ng/mL
CCOC(=O)N[C@H](Cc1ccccc1)C(=O)N1CCC[C@H]1C(=O)NCCCCNC(=N)N [Example 3, EtOCO-D-Phe-Pro-Agm.HCl]	590 ng/mL	–	–
N=C(N)c1cc(F)c(CNC(=O)[C@@H]2CCCN2C(=O)[C@@H](CC2CCCCC2)NCC(=O)O)c(F)c1 [Example 72, HO2 CCH2 -D-Cha-Pro-4-NHCH2 -3,5-F2 -benzamidine.HCl]	1 ng/mL	160 ng/mL	160 ng/mL
CCS(=O)(=O)N[C@H](CC1CCCCC1)C(=O)N1CCC[C@H]1C(=O)NCCCCNC(=N)N [Example 2, EtSO2 -D-Cha-Pro-Agm.HCl]	170 ng/mL	–	–
CCS(=O)(=O)N[C@H](CC1CCCCC1)C(=O)N1CCC[C@H]1C(=O)NCc1ccc(N)cc1F [Example 82, EtSO2 -D-Cha-Pro-4-NHCH2 -3-F-C6 H3 NH2.HCl]	130 ng/mL	3,800 ng/mL	3,000 ng/mL
N=C(N)Nc1cccc(CCNC(=O)[C@@H]2CCCN2C(=O)[C@@H]2NCC[C@@H]3CCCC[C@@H]32)c1 [Example 41, D-1-Piq-Pro-m-NHCH2 CH2 C6 H4 NHC(NH)NH2.2HCl]	82,200 ng/mL	> 91,000 ng/mL	> 91,000 ng/mL
NC[C@H]1CC[C@H](CNC(=O)[C@@H]2CCCN2C(=O)[C@H](N)Cc2ccccc2)CC1 (relative stereo) [Example 12, D-Phe-Pro-NHCH2 -trans-4-(aminomethyl)cyclohexane.HCl]	1,700 ng/mL	–	–
NCc1ccc(CNC(=O)[C@@H]2CCCN2C(=O)[C@H](N)Cc2ccccc2)cc1 [Example 10, D-Phe-Pro-p-NHCH2 C6 H4 CH2 NH2.HCl]	420 ng/mL	–	–
Nc1ccc(CNC(=O)[C@@H]2CCCN2C(=O)[C@@H](CC2CCCCC2)NCC(=O)O)cc1 [Example 62, HO2 CCH2 -D-Cha-Pro-4-NHCH2 C6 H4 NH2.HCl]	54 ng/mL	–	–
N=C(N)NCCCNC(=O)[C@@H]1CCCN1C(=O)[C@H](N)Cc1ccccc1 [Example 7, D-Phe-Pro-NH(CH2)3 NHC(NH)NH2.HCl]	490 ng/mL	–	–
N=C(N)NCc1ccc(CNC(=O)[C@@H]2CCCN2C(=O)[C@H](N)Cc2ccccc2)cc1 [Example 9, D-Phe-Pro-p-NHCH2 -C6 H4 CH2 NHC(NH)NH2.2TFA]	> 91,000 ng/mL	–	–
